Values joined by “and” are separate entries in the source; they are usually repeats but may differ in a detail not shown here. Equal values may be shown once.
What was measured:
[1] = tested on: KCl-induced cortical spreading depression; experiment: Cortical spreading depression (CSD) assay as model of migraine; assay type: in vivo, Sprague-Dawley rats; conditions: rats, 100 mg/kg/day p.o. for 35 days
Experimental: Cortical spreading depression (CSD) has been implicated in migraine and as a headache trigger, and can be evoked in experimental animals by electrical or chemical stimulation (Kunkler & Kraig, 2003; Lauritzen et al., 1982; Moskowitz, 1984).
(§1) Adult male Sprague-Dawley rats (250-600 g) were divided into two treatment groups: vehicle (0.5% methylcellulose; n=13) and Compound #1 (100 mg/kg/day, p.o.; n=7). Results were compared to historical positive controls with valproic acid at 200 mg/kg/day, i.p.
Vehicle or Compound #1 was administered orally once a day for 35 days. On the last day of treatment, rats continued to receive food and water ad libitum, and were given their daily oral dose of vehicle or Compound #1 approximately 1.5 h prior to CSD testing. Rats were anesthetized using isoflurane and intubated via a tracheotomy for mechanical ventilation. Body temperature, blood pressure and heart rate were monitored throughout the procedure to ensure homeostasis. […] The steady (DC) potential and electrocorticogram (EcoG) were recorded with glass micropipettes filled with 200 mM NaCl, […] below the dural surface. […] The number of KCL-induced CSDs was counted for 2 hours. Propagation speed was calculated from the distance (mm) between the recording electrodes 1 and 2, divided by the latency (min) between the CSDs recorded at these sites. […]

[2] = Body weight and systemic physiology monitoring during CSD testing; assay type: in vivo, Sprague-Dawley rats; conditions: rats, 100 mg/kg/day p.o. for 35 days
Experimental: as §1
Vehicle or Compound #1 was administered orally once a day for 35 days. On the last day of treatment, rats continued to receive food and water ad libitum, and were given their daily oral dose of vehicle or Compound #1 approximately 1.5 h prior to CSD testing. Rats were anesthetized using isoflurane and intubated via a tracheotomy for mechanical ventilation. Body temperature, blood pressure and heart rate were monitored throughout the procedure to ensure homeostasis. Rats were placed in a stereotaxic frame and three burr holes were drilled under saline cooling over the right hemisphere at the following coordinates (mm from bregma): (1) posterior 4.5, lateral 2.0 (occipital cortex): KCL application; (2) posterior 0.5, lateral 2.0 (parietal cortex): recording site 1; (3) anterior 2, lateral 2 (frontal cortex): recording site 2. Dura overlying the occipital cortex was gently removed. The steady (DC) potential and electrocorticogram (EcoG) were recorded with glass micropipettes filled with 200 mM NaCl, […] below the dural surface. An Ag/AgCl reference electrode was placed subcutaneously in the neck. Following surgical preparation, the cortex was allowed to recover for 30 minutes under saline irrigation. Cortical spreading depressions were initiated by placing a cotton ball soaked with 1 M KCl on the pial surface. The number of KCL-induced CSDs was counted for 2 hours. Propagation speed was calculated from the distance (mm) between the recording electrodes 1 and 2, divided by the latency (min) between the CSDs recorded at these sites.

[3] = tested on: KCl-induced cortical spreading depression; conditions: historical positive control, 200 mg/kg/day i.p. for 4 weeks; saline vehicle 18; p<0.05; cited from earlier work

In the case of `NS(=O)(=O)NCc1csc2ccccc12` [Compound #1, N-(benzo[b]thien-3-ylmethyl)-sulfamide], the “Propagation Speed” value ([1]; KCl-induced CSD, vehicle 3.2 ± 1, p=0.06) is reported as 2.8 ± 0.3 mm/min, the “CSDs (2 h) ≧5 mV (number of KCl-induced cortical spreading depressions)” value ([1]; last dose approx. 1.5 h before testing, topical 1 M KCl, counted for 2 hours, vehicle 16 ± 3, p=0.12) is reported as 12 and 12 ± 5 and the “Physiological monitoring, including arterial pH, pCO2, pO2 and blood pressure, versus vehicle” value [2] is reported as “did not differ between the groups”. The “Systemic Physiology: BP (blood pressure)” value ([2]; during CSD testing) was 102 ± 6, the “Systemic Physiology: pCO2” value ([2]; during CSD testing) was 42 ± 6 and the “Systemic Physiology: pH (arterial)” value ([2]; during CSD testing) was 7.4 ± 0.05. The “Systemic Physiology: pO2” value ([2]; during CSD testing) was 154 ± 23.
For `CCCC(CCC)C(=O)O` [valproate, valproic acid], the “Number of cortical spreading depressions” value [3] is listed as 12.
